Like-named read-outs stand apart in the source and are kept apart here.
Legend:
[1] = molecular target: Photinus pyralis (firefly) luciferase (Photinus pyralis, UniProt P08659); assay: biochemical; format: biochemical
human CYP1A2 [2] = molecular target: T1, human CYP1A2 (Homo sapiens, UniProt P05177); conditions: human
T1 sequence (P05177 1-516): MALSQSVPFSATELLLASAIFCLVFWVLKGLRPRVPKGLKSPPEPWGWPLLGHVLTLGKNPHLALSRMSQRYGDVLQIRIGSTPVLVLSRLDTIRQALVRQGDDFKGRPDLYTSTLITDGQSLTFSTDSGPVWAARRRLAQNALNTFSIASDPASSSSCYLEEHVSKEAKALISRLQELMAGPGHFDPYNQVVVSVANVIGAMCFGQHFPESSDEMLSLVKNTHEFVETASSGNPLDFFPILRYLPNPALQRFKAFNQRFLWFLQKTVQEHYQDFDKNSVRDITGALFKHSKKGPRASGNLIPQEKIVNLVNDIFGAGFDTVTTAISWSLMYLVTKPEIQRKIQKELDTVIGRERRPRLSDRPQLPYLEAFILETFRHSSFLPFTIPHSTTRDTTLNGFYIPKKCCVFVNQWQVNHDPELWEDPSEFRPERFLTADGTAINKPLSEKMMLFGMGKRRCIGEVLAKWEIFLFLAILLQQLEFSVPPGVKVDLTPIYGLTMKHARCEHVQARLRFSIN

human CYP2C9 [3] = molecular target: T2, human CYP2C9 (Homo sapiens, UniProt P11712); conditions: human
human CYP2C19 [4] = molecular target: T3, human CYP2C19 (Homo sapiens, UniProt P33261); conditions: human
human CYP2D6 [5] = molecular target: T4, human CYP2D6 (Homo sapiens, UniProt P10635); conditions: human
CYP3A4 [6] = molecular target: T5, CYP3A4 (Homo sapiens, UniProt P08684)
human CYP1A2 [7] = molecular target: T1, human CYP1A2; assay: biochemical; conditions: CYP1A2 IC50 (half-maximal inhibitory concentration)
human CYP2C9 [8] = molecular target: T2, human CYP2C9; assay: biochemical
human CYP2C19 [9] = molecular target: T3, human CYP2C19; assay: biochemical; conditions: CYP2C19 IC50 (half-maximal inhibitory concentration)
human CYP2D6 [10] = molecular target: T4, human CYP2D6; assay: biochemical
CYP3A4 [11] = molecular target: T5, CYP3A4; assay: biochemical; conditions: CYP3A4 IC50 (half-maximal inhibitory concentration)
[12] = CYP2C9 IC50 (half-maximal inhibitory concentration)
[13] = CYP2D6 IC50 (half-maximal inhibitory concentration)

Sequence of Photinus pyralis (firefly) luciferase (P08659 whole entry): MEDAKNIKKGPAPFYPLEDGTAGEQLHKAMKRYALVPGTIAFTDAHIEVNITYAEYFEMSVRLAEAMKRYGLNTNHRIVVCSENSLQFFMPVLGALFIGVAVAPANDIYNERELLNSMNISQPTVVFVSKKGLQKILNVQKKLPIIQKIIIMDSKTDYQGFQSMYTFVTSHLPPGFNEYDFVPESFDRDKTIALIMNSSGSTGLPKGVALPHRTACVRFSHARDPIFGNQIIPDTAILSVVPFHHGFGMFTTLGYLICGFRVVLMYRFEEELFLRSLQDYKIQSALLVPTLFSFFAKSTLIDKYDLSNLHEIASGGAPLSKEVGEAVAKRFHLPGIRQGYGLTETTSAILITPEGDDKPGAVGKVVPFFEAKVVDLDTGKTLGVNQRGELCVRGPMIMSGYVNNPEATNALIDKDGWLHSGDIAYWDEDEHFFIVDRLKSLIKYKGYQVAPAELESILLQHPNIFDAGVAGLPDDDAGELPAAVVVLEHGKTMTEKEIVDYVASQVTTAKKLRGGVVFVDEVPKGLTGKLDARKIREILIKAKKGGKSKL
T3 sequence (P33261 whole entry): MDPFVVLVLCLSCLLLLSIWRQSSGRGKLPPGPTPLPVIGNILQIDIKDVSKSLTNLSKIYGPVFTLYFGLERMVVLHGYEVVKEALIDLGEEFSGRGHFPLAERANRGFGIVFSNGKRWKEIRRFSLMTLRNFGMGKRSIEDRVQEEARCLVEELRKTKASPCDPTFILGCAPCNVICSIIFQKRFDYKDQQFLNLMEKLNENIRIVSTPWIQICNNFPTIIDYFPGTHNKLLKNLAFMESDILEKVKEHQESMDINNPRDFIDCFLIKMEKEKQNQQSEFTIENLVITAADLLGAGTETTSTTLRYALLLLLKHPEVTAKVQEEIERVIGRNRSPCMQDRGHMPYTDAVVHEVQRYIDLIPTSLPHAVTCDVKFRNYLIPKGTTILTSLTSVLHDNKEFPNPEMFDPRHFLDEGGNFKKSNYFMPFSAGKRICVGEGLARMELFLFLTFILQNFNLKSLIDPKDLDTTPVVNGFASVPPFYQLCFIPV
T2 sequence (P11712 whole entry): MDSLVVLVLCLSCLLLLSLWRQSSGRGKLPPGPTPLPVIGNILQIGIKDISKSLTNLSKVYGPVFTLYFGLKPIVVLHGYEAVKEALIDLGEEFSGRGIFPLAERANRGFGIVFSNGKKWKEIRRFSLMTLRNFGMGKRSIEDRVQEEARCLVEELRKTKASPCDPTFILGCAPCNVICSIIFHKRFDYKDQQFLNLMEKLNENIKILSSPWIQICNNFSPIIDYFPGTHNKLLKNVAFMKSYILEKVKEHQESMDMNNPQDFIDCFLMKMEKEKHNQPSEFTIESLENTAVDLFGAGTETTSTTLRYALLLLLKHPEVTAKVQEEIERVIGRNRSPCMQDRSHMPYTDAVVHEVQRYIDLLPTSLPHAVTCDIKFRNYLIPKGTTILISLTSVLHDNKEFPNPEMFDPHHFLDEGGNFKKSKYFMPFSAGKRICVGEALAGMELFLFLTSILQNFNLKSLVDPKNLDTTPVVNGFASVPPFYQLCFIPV
T5 sequence (P08684 whole entry): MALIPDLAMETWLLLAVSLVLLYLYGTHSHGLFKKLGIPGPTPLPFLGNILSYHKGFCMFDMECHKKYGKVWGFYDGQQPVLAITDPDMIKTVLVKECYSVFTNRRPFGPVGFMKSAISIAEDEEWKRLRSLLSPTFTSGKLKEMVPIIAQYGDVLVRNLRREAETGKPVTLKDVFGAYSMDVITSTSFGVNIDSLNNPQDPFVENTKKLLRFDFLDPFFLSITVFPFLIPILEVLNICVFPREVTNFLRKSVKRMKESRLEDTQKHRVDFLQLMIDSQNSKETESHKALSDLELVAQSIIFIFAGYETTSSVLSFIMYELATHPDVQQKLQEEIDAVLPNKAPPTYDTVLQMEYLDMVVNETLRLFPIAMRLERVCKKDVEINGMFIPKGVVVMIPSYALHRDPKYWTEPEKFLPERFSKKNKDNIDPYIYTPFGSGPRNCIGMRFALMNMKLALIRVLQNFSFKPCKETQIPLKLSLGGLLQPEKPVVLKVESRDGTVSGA
T4 sequence (P10635 whole entry): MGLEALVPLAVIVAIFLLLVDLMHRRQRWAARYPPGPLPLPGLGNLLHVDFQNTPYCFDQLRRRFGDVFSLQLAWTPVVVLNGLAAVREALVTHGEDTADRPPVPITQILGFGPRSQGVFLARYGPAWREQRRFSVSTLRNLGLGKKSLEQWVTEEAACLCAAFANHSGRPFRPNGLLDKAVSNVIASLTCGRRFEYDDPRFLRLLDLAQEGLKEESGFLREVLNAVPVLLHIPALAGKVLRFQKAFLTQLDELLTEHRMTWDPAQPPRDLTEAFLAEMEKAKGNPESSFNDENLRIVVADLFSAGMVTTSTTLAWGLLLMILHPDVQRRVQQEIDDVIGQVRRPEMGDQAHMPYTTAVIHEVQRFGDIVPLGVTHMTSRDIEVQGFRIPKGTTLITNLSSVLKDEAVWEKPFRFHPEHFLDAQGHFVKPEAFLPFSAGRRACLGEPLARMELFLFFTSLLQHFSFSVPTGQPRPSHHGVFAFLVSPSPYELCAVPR

Row | SMILES | Luciferase IC50 (half-maximal inhibitory concentration) [1] | CYP1A2 Efficacy (in parenthesis) (human CYP1A2 [2]) | CYP2C9 Efficacy (in parenthesis) (human CYP2C9 [3]) | CYP2C19 Efficacy (in parenthesis) (human CYP2C19 [4]) | CYP2D6 Efficacy (in parenthesis) (human CYP2D6 [5]) | CYP3A4 Efficacy (in parenthesis) (CYP3A4 [6]) | IC50 (human CYP1A2 [7]) [µM] | IC50 (human CYP2C9 [8]; [12]) [µM] | IC50 (human CYP2C19 [9]) [nM] | IC50 (human CYP2D6 [10]; [13]) [µM] | IC50 (CYP3A4 [11]) [nM] | IC50 (human CYP2C9 [8]) [µM] | IC50 (human CYP2D6 [10]) [µM]
1 | Clc1ccc(C2(Cn3cncn3)OCCO2)c(Cl)c1 [Azaconazole] | Inactive | 33.14 ± 4.22 (-89 ± 9) % | 15.38 ± 2.12 (-103 ± 8) % | 2.14 ± 0.96 (-148 ± 8) % | 65.83 ± 4.46 (-77 ± 14) % | 0.48 ± 0.03 (-62 ± 7) % | 33.1 | 15.4 | 2140 | 65.8 | 480 |  | 
2 | CCOP(=S)(OCC)SCn1nnc2ccccc2c1=O [Azinphos-ethyl] | Inactive | 28.65 ± 6 (-88 ± 5) % | 0.57 ± 0.11 (-97 ± 0) % | 0.32 ± 0.06 (-141 ± 5) % | 35.57 ± 0 (-87 ± 6) % | 1.87 ± 0.34 (-77 ± 3) % | 28.6 |  | 320 |  | 1870 | 0.57 | 35.6
3 | C=CCOC(=O)C(C)(C)OC(=O)c1cc(-n2c(=O)cc(C(F)(F)F)n(C)c2=O)ccc1Cl [Butafenacil] | Inactive | 35.06 ± 4.03 (-48 ± 4) % | 23.68 ± 7.01 (-109 ± 17) % | 50.02 ± 19.28 (-89 ± 23) % | 26.96 ± 4.59 (-70 ± 7) % | 0.51 ± 0.14 (-90 ± 4) % | 35.1 | 23.7 | 50000 | 27 | 510 |  | 
4 | O=S(=O)(Oc1ccc(Cl)cc1)c1ccc(Cl)cc1 [Chlorfenson] | Inactive | 3.21 ± 1.48 (-95 ± 14) % | 18.81 ± 7.04 (-92 ± 16) % | 0.14 ± 0.02 (-95 ± 43) % | 21.56 ± 9.06 (-95 ± 15) % | 6.8 ± 1.64 (41 ± 6) % | 3.21 | 18.8 | 140 | 21.6 | 6800 |  | 
5 | N#Cc1c(Cl)c(Cl)c(Cl)c(C#N)c1Cl [Chlorothalonil] | Inactive | 1.03 ± 0.19 (-97 ± 4) % | 6.61 ± 1.87 (-85 ± 10) % | 38.42 ± 34.42 (-114 ± 10) % | 34.91 ± 0 (-58 ± 3) % | 1.11 ± 0.13 (-78 ± 2) % | 1.03 | 6.61 | 38400 | 34.9 | 1110 |  | 
6 | CC(C1CC1)C(O)(Cn1cncn1)c1ccc(Cl)cc1 (centres unmarked) [Cyproconazole] | Inactive | 30.37 ± 9.95 (-33 ± 2) % | 0.13 ± 0.04 (-105 ± 6) % | 0.3 ± 0.07 (-141 ± 28) % | 38.25 ± 2.49 (-72 ± 6) % | 0.97 ± 0.57 (-70 ± 7) % | 30.4 | 0.13 | 300 | 38.3 | 970 |  | 
7 | CCC1COC(Cn2cncn2)(c2ccc(Cl)cc2Cl)O1 (centres unmarked) [Etaconazole] | Inactive | 31.85 ± 3.66 (-69 ± 5) % | 5.71 ± 1.07 (-109 ± 6) % | 0.32 ± 0.04 (-137 ± 10) % | 45.4 ± 9.51 (-42 ± 2) % | 0.1 ± 0.01 (-79 ± 1) % | 31.9 | 5.71 | 320 | 45.4 | 100 |  | 
8 | COP(=S)(OC)Oc1ccc(S(=O)(=O)N(C)C)cc1 [Famphur] | Inactive | 35.73 ± 4.11 (-67 ± 14) % | 0.4 ± 0.05 (-109 ± 5) % | 0.09 ± 0.01 (-137 ± 1) % | 35.57 ± 0 (-59 ± 2) % | 9.06 ± 1.9 (-86 ± 7) % | 35.7 |  | 90 |  | 9060 | 0.4 | 35.6
9 | CC(C)C1CCC(Cc2ccc(Cl)cc2)C1(O)Cn1cncn1 (centres unmarked) [Ipconazole] | Inactive | 35.41 ± 4.07 (-90 ± 1) % | 0.79 ± 0.09 (-94 ± 4) % | 0.27 ± 0.07 (-168 ± 31) % | 22.34 ± 2.57 (-107 ± 15) % | 0.05 ± 0.01 (-89 ± 5) % | 35.4 | 0.79 | 270 | 22.3 | 50 |  | 
10 | COP(=S)(Oc1cc(Cl)c(Br)cc1Cl)c1ccccc1 (centres unmarked) [Leptophos] | Inactive | 21.38 ± 6.3 (-109 ± 13) % | 0.98 ± 0.25 (-107 ± 5) % | 0.27 ± 0.05 (-122 ± 2) % | 89.36 ± 0 (-42 ± 11) % | 7.39 ± 0.5 (-65 ± 15) % | 21.4 |  | 270 |  | 7390 | 0.98 | 89.4

Source: PMC12155096 (International Journal of Molecular Sciences, 2025)
